The results in this text go back to ChEMBL document CHEMBL4229439, “Design, synthesis and antimycobacterial activity of 3,5-dinitrobenzamide derivatives containing fused ring moieties” (2018).

Values after ≈ are worked out from the molar mass of the structure shown. Active and inactive are the calls of the source. The calls are words filed in the database; no cut-off is given here. Some results are limits rather than exact numbers.

One assay has as its system Mycobacterium tuberculosis. Kind of assay: Antimycobacterial activity against Mycobacterium tuberculosis H37Rv ATCC 27294 after 7 days by Alamar blue assay. Particulars: H37Rv ATCC 27294, 168 h. It is filed as functional. On the technique in general: Resazurin is reduced to fluorescent resorufin, in cell work by metabolically active cells.
Consider `CCC(C)C(=O)N1CCc2cc(CNC(=O)c3cc([N+](=O)[O-])cc([N+](=O)[O-])c3)ccc2C1` (stereo not drawn), for which it took 0.468 µg/mL (≈ 1.06 µM) to inhibit growth (MIC).
Molecule `CCN(CC)C(=O)CN1CCc2cc(CNC(=O)c3cc([N+](=O)[O-])cc([N+](=O)[O-])c3)ccc2C1` gave an MIC of 15.3 µg/mL (≈ 32.7 µM).
In turn, `O=C(NCc1ccc2c(c1)CCN(CC1CCCCC1)C2)c1cc([N+](=O)[O-])cc([N+](=O)[O-])c1` returned an MIC of 0.226 µg/mL (≈ 0.499 µM).
Turning to `CC(=O)CN1CCc2cc(CNC(=O)c3cc([N+](=O)[O-])cc([N+](=O)[O-])c3)ccc2C1`, the minimal inhibitory concentration (MIC) is 3.12 µg/mL (≈ 7.56 µM).
`CO[C@H]1/C=C/O[C@@]2(C)Oc3c(C)c(O)c4c(O)c(c(/C=N/N5CCN(C)CC5)c(O)c4c3C2=O)NC(=O)/C(C)=C\C=C\[C@H](C)[C@H](O)[C@@H](C)[C@@H](O)[C@@H](C)[C@H](OC(C)=O)[C@@H]1C` [RIFAMPIN] had an MIC of 0.095 µg/mL (≈ 0.115 µM).
Same read-out and setting: the figure for `O=C(NCc1ccc2c(c1)CCN(Cc1ccc(Br)cc1)C2)c1cc([N+](=O)[O-])cc([N+](=O)[O-])c1` is 0.108 µg/mL (≈ 0.206 µM).
The same measure, in the same setting: under `CCOC(=O)CN1CCc2cc(CNC(=O)c3cc([N+](=O)[O-])cc([N+](=O)[O-])c3)ccc2C1` stands 0.243 µg/mL (≈ 0.549 µM); under `O=C(NCc1ccc2c(c1)CCN(C(=O)c1ccccc1)C2)c1cc([N+](=O)[O-])cc([N+](=O)[O-])c1`, 0.974 µg/mL (≈ 2.12 µM); under `O=C(CN1CCc2cc(CNC(=O)c3cc([N+](=O)[O-])cc([N+](=O)[O-])c3)ccc2C1)OCc1ccccc1`, 7.55 µg/mL (≈ 15 µM).
`O=C(NCc1ccc2c(c1)CN(Cc1ccc(F)cc1)C2)c1cc([N+](=O)[O-])cc([N+](=O)[O-])c1` returned an MIC of 0.028 µg/mL (≈ 0.0622 µM). This MIC is about 270-fold lower than that of the molecule before.
On the same count and under the same terms, under `O=C(NCc1ccc2c(c1)CCN(c1ccc(F)cc1)C2)c1cc([N+](=O)[O-])cc([N+](=O)[O-])c1` stands 0.076 µg/mL (≈ 0.169 µM).
For the molecule `O=C(NCc1ccc2c(c1)CCN(Cc1cccc(F)c1)C2)c1cc([N+](=O)[O-])cc([N+](=O)[O-])c1`, 0.056 µg/mL (≈ 0.121 µM) was the least that counted as inhibitory (MIC).
The same measure, in the same setting: under `COc1ccc(C(=O)N2Cc3ccc(CNC(=O)c4cc([N+](=O)[O-])cc([N+](=O)[O-])c4)cc3C2)cc1` stands over 32 µg/mL; under `O=C(NCc1ccc2c(c1)CCN(Cc1ccc(Cl)cc1)C2)c1cc([N+](=O)[O-])cc([N+](=O)[O-])c1`, 0.056 µg/mL (≈ 0.116 µM); under `O=C(NCc1ccc2c(c1)CN(Cc1ccc(C(F)(F)F)cc1)C2)c1cc([N+](=O)[O-])cc([N+](=O)[O-])c1`, under 0.016 µg/mL.
As for `O=C(NCc1ccc2c(c1)CCN(C(=O)c1ccc(F)cc1)C2)c1cc([N+](=O)[O-])cc([N+](=O)[O-])c1`, it took 0.424 µg/mL (≈ 0.886 µM) to inhibit growth (MIC).
In turn, `O=C(NCc1ccc2c(c1)CN(c1ccc(C(F)(F)F)cc1)C2)c1cc([N+](=O)[O-])cc([N+](=O)[O-])c1` gave an MIC of 0.098 µg/mL (≈ 0.201 µM). Against the preceding molecule, the MIC is about 4.3-fold lower.
In the case of `O=C(NCc1ccc2c(c1)CN(C(=O)c1ccc(OC(F)(F)F)cc1)C2)c1cc([N+](=O)[O-])cc([N+](=O)[O-])c1`, the lowest concentration to inhibit growth (MIC) was 0.309 µg/mL (≈ 0.583 µM).
Same read-out and setting: the figure for `O=C(NCc1ccc2c(c1)CCN(Cc1cc(C(F)(F)F)cc(C(F)(F)F)c1)C2)c1cc([N+](=O)[O-])cc([N+](=O)[O-])c1` is 1.9 µg/mL (≈ 3.26 µM); for `O=C(NCc1ccc2c(c1)CCN(c1ccc(C(F)(F)F)cc1)C2)c1cc([N+](=O)[O-])cc([N+](=O)[O-])c1` it is 0.079 µg/mL (≈ 0.158 µM).
The same measure, in the same setting: under `CC(=O)CCN1CCc2cc(CNC(=O)c3cc([N+](=O)[O-])cc([N+](=O)[O-])c3)ccc2C1` stands 22.7 µg/mL (≈ 53.3 µM); under `O=C(NCc1ccc2c(c1)CN(c1ccc(F)cc1)C2)c1cc([N+](=O)[O-])cc([N+](=O)[O-])c1`, 0.026 µg/mL (≈ 0.0596 µM).
Molecule `O=C(NCc1ccc2c(c1)CN(Cc1ccc(OC(F)(F)F)cc1)C2)c1cc([N+](=O)[O-])cc([N+](=O)[O-])c1` had an MIC of 0.016 µg/mL (≈ 0.031 µM).
`O=C(NCc1ccc2c(c1)CCN(C(=O)CC1CCCCC1)C2)c1cc([N+](=O)[O-])cc([N+](=O)[O-])c1` returned an MIC of 0.978 µg/mL (≈ 2.04 µM).
Molecule `O=C(NCc1ccc2c(c1)CCN(Cc1ccc(OC(F)(F)F)cc1)C2)c1cc([N+](=O)[O-])cc([N+](=O)[O-])c1` yielded a minimal inhibitory concentration (MIC) of 0.241 µg/mL (≈ 0.454 µM).
In the case of `O=C(NCc1ccc2c(c1)CCN(c1ccc(OC(F)(F)F)cc1)C2)c1cc([N+](=O)[O-])cc([N+](=O)[O-])c1`, the MIC is 0.241 µg/mL (≈ 0.467 µM).
With `O=C(NCc1ccc2c(c1)CNC2)c1cc([N+](=O)[O-])cc([N+](=O)[O-])c1`, the MIC is under 0.016 µg/mL.
On the same count and under the same terms, under `CC(C)(C)C(=O)N1CCc2cc(CNC(=O)c3cc([N+](=O)[O-])cc([N+](=O)[O-])c3)ccc2C1` stands 0.447 µg/mL (≈ 1.01 µM); under `O=C(CN1CCc2cc(CNC(=O)c3cc([N+](=O)[O-])cc([N+](=O)[O-])c3)ccc2C1)NCc1ccccc1`, 3.96 µg/mL (≈ 7.86 µM); under `O=C(NCc1ccc2c(c1)CCN(C(=O)C1CCCCC1)C2)c1cc([N+](=O)[O-])cc([N+](=O)[O-])c1`, 0.5 µg/mL (≈ 1.07 µM).
For the molecule `COc1ccc(CN2Cc3ccc(CNC(=O)c4cc([N+](=O)[O-])cc([N+](=O)[O-])c4)cc3C2)cc1`, inhibition of growth (MIC) required 0.03 µg/mL (≈ 0.0649 µM).
`NNC(=O)c1ccncc1` [ISONIAZID] came in with an MIC of 0.039 µg/mL (≈ 0.284 µM).
The molecule `O=C(NCc1ccc2c(c1)CCN(Cc1ccc(F)cc1)C2)c1cc([N+](=O)[O-])cc([N+](=O)[O-])c1` registered an MIC of 0.122 µg/mL (≈ 0.263 µM).
The same measure, in the same setting: the figure for `O=C(NCc1ccc2c(c1)CN(C(=O)c1ccccc1)C2)c1cc([N+](=O)[O-])cc([N+](=O)[O-])c1` is 1.45 µg/mL (≈ 3.25 µM); for `CC(C)(C)OC(=O)CN1CCc2cc(CNC(=O)c3cc([N+](=O)[O-])cc([N+](=O)[O-])c3)ccc2C1` it is 3.81 µg/mL (≈ 8.1 µM); for `O=c1nc(N2CCN(CC3CCCCC3)CC2)sc2c([N+](=O)[O-])cc(C(F)(F)F)cc12` [MACOZINONE] it is under 0.016 µg/mL.
Regarding `O=C(NCc1ccc2c(c1)CN(C(=O)c1ccc(F)cc1)C2)c1cc([N+](=O)[O-])cc([N+](=O)[O-])c1`, it took 0.926 µg/mL (≈ 1.99 µM) to inhibit growth (MIC).
Molecule `CN1CCc2cc(CNC(=O)c3cc([N+](=O)[O-])cc([N+](=O)[O-])c3)ccc2C1` came in with a minimal inhibitory concentration (MIC) of 11.4 µg/mL (≈ 30.9 µM).
For `COc1ccc(C(=O)N2CCc3cc(CNC(=O)c4cc([N+](=O)[O-])cc([N+](=O)[O-])c4)ccc3C2)cc1`, the MIC worked out at 1.15 µg/mL (≈ 2.34 µM).
`CC(C)(C)C(=O)N1Cc2ccc(CNC(=O)c3cc([N+](=O)[O-])cc([N+](=O)[O-])c3)cc2C1` returned an MIC of 0.489 µg/mL (≈ 1.15 µM). This MIC lies about 2.4-fold lower than the previous one.
Same read-out and setting: the figure for `CC(C)CC(=O)N1CCc2cc(CNC(=O)c3cc([N+](=O)[O-])cc([N+](=O)[O-])c3)ccc2C1` is 0.204 µg/mL (≈ 0.463 µM); for `O=C(NCc1ccc2c(c1)CN(C(=O)C1CCCCC1)C2)c1cc([N+](=O)[O-])cc([N+](=O)[O-])c1` it is 0.808 µg/mL (≈ 1.79 µM).

For a further assay, the system named is Mycobacterium tuberculosis. Kind of assay: Antimycobacterial activity against Mycobacterium tuberculosis H37Rv ATCC 27294 up to 10 ug/ml after 7 days by Alamar blue assay. Format: functional, organism-based.
Details: not given
As for `O=C(NCc1ccc2c(c1)CNC2)c1cc([N+](=O)[O-])cc([N+](=O)[O-])c1`, the result was inactive.

One may read the MIC as the least concentration at which growth counts as inhibited. A high value points to a less susceptible organism.
